From ChEMBL document CHEMBL2203135, “Novel progesterone receptor modulators: 4-aryl-phenylsulfonamides” (Bioorg Med Chem Lett, 2012)
Active and inactive are the calls of the source. The rule behind the calls is not given here.

Tests used:
Type in all cases: functional
[1] = molecular target: T1, Estrogen receptor (Homo sapiens) (UniProt P03372); experiment: Agonist activity at estrogen receptor by cellular reporter gene assay
T1 sequence (whole entry): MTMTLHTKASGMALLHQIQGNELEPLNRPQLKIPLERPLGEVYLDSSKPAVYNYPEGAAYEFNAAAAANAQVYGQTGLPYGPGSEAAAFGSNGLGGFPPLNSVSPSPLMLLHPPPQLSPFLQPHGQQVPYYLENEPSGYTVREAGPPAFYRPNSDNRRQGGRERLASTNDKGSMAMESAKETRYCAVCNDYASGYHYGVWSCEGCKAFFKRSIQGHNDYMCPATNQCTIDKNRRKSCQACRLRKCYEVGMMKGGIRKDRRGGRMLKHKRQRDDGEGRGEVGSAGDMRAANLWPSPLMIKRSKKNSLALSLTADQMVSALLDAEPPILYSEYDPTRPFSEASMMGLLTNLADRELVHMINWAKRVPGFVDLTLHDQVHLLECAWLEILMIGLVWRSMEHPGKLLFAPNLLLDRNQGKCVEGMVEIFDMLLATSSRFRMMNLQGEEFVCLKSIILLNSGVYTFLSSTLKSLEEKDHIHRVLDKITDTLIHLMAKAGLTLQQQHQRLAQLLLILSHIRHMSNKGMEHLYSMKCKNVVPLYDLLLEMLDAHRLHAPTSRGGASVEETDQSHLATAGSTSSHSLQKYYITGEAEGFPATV

[2] = molecular target: T2, Androgen receptor (Homo sapiens) (UniProt P10275); experiment: Agonist activity at androgen receptor by cellular reporter gene assay
T2 sequence (whole entry): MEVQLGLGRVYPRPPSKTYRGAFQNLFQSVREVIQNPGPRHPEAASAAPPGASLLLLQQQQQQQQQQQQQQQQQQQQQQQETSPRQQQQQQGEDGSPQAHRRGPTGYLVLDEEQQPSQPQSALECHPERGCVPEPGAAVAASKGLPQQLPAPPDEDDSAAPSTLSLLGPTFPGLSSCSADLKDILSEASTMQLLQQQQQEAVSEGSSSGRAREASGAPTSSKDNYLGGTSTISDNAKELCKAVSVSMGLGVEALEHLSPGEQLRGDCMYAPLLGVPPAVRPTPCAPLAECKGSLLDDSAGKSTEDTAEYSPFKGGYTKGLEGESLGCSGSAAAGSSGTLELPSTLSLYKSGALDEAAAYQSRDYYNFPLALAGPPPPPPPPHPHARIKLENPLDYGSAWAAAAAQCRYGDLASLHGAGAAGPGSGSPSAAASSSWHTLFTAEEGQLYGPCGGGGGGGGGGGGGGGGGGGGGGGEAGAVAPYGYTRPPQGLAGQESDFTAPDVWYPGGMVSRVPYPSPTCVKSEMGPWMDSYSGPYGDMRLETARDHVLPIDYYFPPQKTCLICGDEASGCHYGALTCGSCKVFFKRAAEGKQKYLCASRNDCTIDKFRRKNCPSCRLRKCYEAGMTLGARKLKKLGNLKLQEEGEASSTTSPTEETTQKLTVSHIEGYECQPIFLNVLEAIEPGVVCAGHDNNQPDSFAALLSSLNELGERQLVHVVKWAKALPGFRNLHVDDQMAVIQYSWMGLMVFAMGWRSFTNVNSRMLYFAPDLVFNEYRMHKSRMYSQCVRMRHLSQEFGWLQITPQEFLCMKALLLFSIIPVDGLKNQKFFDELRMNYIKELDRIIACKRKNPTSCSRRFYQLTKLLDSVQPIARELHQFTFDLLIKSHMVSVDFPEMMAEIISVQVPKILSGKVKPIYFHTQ

[3] = molecular target: T3, Mineralocorticoid receptor (Homo sapiens) (UniProt P08235); experiment: Agonist activity at mineralocorticoid receptor by cellular reporter gene assay
T3 sequence (whole entry): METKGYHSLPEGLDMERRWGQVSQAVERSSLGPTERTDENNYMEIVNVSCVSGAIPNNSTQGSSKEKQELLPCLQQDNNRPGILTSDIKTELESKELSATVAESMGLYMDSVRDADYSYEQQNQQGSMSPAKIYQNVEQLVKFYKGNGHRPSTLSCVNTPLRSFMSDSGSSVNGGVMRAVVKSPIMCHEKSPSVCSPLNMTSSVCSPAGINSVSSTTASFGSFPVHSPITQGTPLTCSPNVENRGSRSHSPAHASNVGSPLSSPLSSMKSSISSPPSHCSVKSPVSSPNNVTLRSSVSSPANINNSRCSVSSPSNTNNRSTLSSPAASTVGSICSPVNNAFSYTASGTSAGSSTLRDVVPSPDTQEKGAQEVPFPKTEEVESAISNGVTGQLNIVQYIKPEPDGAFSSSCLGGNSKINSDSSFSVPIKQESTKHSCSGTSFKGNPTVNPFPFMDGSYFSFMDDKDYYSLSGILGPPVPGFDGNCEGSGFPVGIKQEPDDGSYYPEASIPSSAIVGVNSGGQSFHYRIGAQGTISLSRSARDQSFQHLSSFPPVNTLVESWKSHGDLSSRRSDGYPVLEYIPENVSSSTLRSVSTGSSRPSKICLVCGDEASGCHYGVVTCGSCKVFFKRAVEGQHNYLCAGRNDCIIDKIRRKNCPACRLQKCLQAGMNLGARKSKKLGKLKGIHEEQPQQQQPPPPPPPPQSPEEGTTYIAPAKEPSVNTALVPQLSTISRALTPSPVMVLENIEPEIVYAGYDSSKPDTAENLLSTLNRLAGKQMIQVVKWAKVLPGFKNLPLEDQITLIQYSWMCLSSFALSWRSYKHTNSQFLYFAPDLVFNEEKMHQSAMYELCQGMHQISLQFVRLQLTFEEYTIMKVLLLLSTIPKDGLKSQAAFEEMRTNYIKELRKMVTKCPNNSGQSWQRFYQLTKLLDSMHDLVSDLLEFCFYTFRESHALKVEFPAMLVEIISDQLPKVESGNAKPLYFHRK

Activity [1]	Activity [2]	Activity [3]	SMILES
inactive	inactive	inactive	CCS(=O)(=O)Nc1cc(F)c(-c2ccc(C#N)n2C)c(F)c1
inactive	inactive	inactive	COC[C@]1(OC)CC[C@H]2[C@@H]3CCC4=CC(=O)CCC4=C3[C@@H](c3ccc(/C=N/O)cc3)C[C@@]21C [ASOPRISNIL]
